Columns and labels:
[1] = logP determination by HPLC on a reversed-phase column (C18), EEC Directive 79/831 Annex V.A8; format: physicochemical; conditions: for logP^a): HPLC-MS method a), Table I-T3; for logP: HPLC, reversed-phase C18, acetonitrile/water with formic acid, 55° C.
[2] = system: Rhipicephalus sanguineus; assay: Rhipicephalus sanguineus - in vitro contact tests with adult brown dog ticks; format: in vivo
Procedure: Rhipicephalus sanguineus—In Vitro Contact Tests with Adult Brown Dog Ticks
(§1) For the coating of the test tubes, 9 mg of active ingredient are first dissolved in 1 ml of acetone p.a. and then diluted to the desired concentration with acetone p.a. 250 μl of the solution are distributed homogeneously on the inner walls and base of a 25 ml test tube by turning and rocking on an orbital shaker (rocking rotation at 30 rpm for 2 h). With 900 ppm active ingredient solution and internal surface 44.7 cm^2, given homogeneous distribution, an area-based dose of 5 μg/cm^2 is achieved.
After the solvent has evaporated off, the tubes are populated with 5-10 adult dog ticks (Rhipicephalus sanguineus), sealed with a perforated plastic lid and incubated in a horizontal position in the dark at room temperature and ambient humidity. After 48 h, efficacy is determined. To this end, the ticks are knocked to the floor of the tube and incubated on a hotplate at 45-50° C. for not more than 5 min. Ticks which remain motionless on the floor or move in such an uncoordinated manner that they are unable to deliberately avoid the heat by climbing upwards are considered to be dead or moribund.
An efficacy of 100% means that all the ticks were dead or moribund. 0% efficacy means that none of the ticks had been harmed.

[3] = system: Boophilus microplus; assay: Boophilus microplus - injection test; format: in vivo; conditions: application rate 20 μg/animal; injected into engorged adult female ticks; laying of fertile eggs, after 7 days
Method in brief: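 Compound dissolved in DMSO (10 mg per 0.5 ml, then diluted with DMSO to test concentration); 1 μl injected into the abdomen of 5 engorged adult female ticks, which are then held in a climate-controlled room. Efficacy judged after 7 days by laying of fertile eggs.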

[4] = system: Ctenocephalides felis; assay: Ctenocephalides felis - oral test; format: in vivo; conditions: application rate 100 ppm in citrated cattle blood; adult fleas; kill after 2 days
Method in brief: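 DMSO stock, diluted in citrated cattle blood; ~20 unfed adult fleas feed through parafilm; % kill read at day 2 (0% = none killed).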

[5] = system: Lucilia cuprina; assay: Lucilia cuprina test; format: in vivo; conditions: application rate 100 ppm; L1 larvae in minced horsemeat; kill after 2 days
Method in brief: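 Mortality (%) of first-instar blowfly larvae, about 20 per vessel, recorded 2 days after exposure to compound-treated minced horsemeat. Compound dissolved in dimethyl sulphoxide, then water-diluted to the desired concentration.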

[6] = system: Musca domestica; assay: Musca domestica test; format: in vivo; conditions: application rate 100 ppm; adult houseflies; kill after 2 days
Procedure: (§2) Solvent: dimethyl sulphoxide
To produce an appropriate active ingredient formulation, 10 mg of active ingredient are mixed with 0.5 ml of dimethyl sulphoxide, and the concentrate is diluted with water to the desired concentration.
Vessels containing a sponge treated with sugar solution and the active ingredient formulation of the desired concentration are populated with 10 adult houseflies (Musca domestica).
After 2 days, the kill in % is determined. 100% means that all of the flies have been killed; 0% means that none of the flies have been killed.

[7] = system: Boophilus microplus Parkhurst strain, SP-resistant; assay: Boophilus microplus - dip test; format: in vivo; conditions: application rate 100 ppm; dip of engorged adult female ticks; laying of fertile eggs, after 7 days
Procedure: Boophilus microplus—Dip Test
Test animals: cattle ticks (Boophilus microplus) Parkhurst strain, SP-resistant
as §2
10 mg of active ingredient are dissolved in 0.5 ml of dimethyl sulphoxide. For the purpose of producing a suitable formulation, the active ingredient solution is diluted with water to the concentration desired in each case.
This active ingredient formulation is pipetted into tubes. 8-10 adult engorged female cattle ticks (Boophilus microplus) are transferred into a further tube with holes. The tube is immersed into the active ingredient formulation, and all the ticks are completely wetted. After the liquid has run out, the ticks are transferred on filter discs into plastic dishes and stored in a climate-controlled room.
Efficacy is assessed after 7 days by laying of fertile eggs. Eggs which are not visibly fertile are stored in a climate-controlled cabinet until the larvae hatch after about 42 days. An efficacy of 100% means that none of the ticks has laid any fertile eggs; 0% means that all the eggs are fertile.

[8] = system: Ctenocephalides felis; assay: Ctenocephalides felis - in vitro contact tests with adult cat fleas; format: in vivo; conditions: application rate 5 μg/cm^2 (=500 g/ha), after 48 h (dead or moribund)
Procedure: Ctenocephalides felis—In Vitro Contact Tests with Adult Cat Fleas
as §1, with “surface area” for “surface”
After the solvent has evaporated off, the tubes are populated with 5-10 adult cat fleas (Ctenocephalides felis), sealed with a perforated plastic lid and incubated in a horizontal position at room temperature and ambient humidity. After 48 h, efficacy is determined. To this end, the test tubes are stood upright and the fleas are knocked to the base of the tube. Fleas which remain motionless at the base or move in an uncoordinated manner are considered to be dead or moribund.
100% efficacy means that all the fleas were dead or moribund. 0% efficacy means that no fleas were harmed.

[9] = application rate 5 μg/cm^2, after 48 h (dead or moribund)
[10] = HPLC-MS, reversed-phase column (C18)
[11] = HPLC on reversed-phase column (C18)

| Compound | logP^a) [1] | efficacy [2, 9] [%] | efficacy [3] [%] | efficacy [4] [%] | efficacy [5] [%] | efficacy [6] [%] | efficacy [7] [%] | efficacy [8] [%] | log P [1, 10] | efficacy ([2]; application rate 1 μg/cm^2, after 48 h (dead or moribund)) [%] | log P [1, 11] | logP [1] |
| --- | --- | --- | --- | --- | --- | --- | --- | --- | --- | --- | --- | --- |
| CCc1cc(C(F)(C(F)(F)F)C(F)(F)F)ccc1-n1cc(-c2ccc(Cl)c(C(=O)NC3(C#N)CC3)c2)cn1 [I-T3-38] | 4.5 | 80 | 100 | 100 | 100 | 100 |  |  |  |  |  |  |
| CCc1cc(C(F)(C(F)(F)F)C(F)(F)F)ccc1-n1cc(-c2ccc(Cl)c(C(=O)NC3CC3)c2)cn1 [I-T3-39] | 4.6 |  | 100 | 100 | 100 |  | 100 |  |  |  |  |  |
| CCc1cc(C(F)(C(F)(F)F)C(F)(F)F)cc(C)c1-n1cc(-c2ccc(Cl)c(C(=O)NC3(C#N)CC3)c2)cn1 [I-T3-46] | 4.6 | 100 | 100 | 100 | 100 | 100 |  | 100 |  |  |  |  |
| CCc1cc(C(F)(C(F)(F)F)C(F)(F)F)cc(C)c1-n1cc(-c2ccc(Cl)c(C(=O)NC3CSC3)c2)cn1 [I-T3-47] | 5.0 | 100 | 100 | 100 | 100 |  |  |  |  |  |  |  |
| O=C(NC1CC1)c1cc(-c2cnn(-c3ccc(C(F)(C(F)(F)F)C(F)(F)F)cc3C(F)(F)F)c2)ccc1Cl [I-T3-52] | 4.3 | 100 | 100 | 100 | 100 | 100 |  |  |  |  |  |  |
| O=C(NC1CC1)c1cc(-c2cnn(-c3c(Cl)cc(OC(F)(F)F)cc3Cl)c2)ccc1Cl [I-T3-88] | 3.6 | 80 | 100 | 100 | 100 | 80 |  | 100 |  |  |  |  |
| O=C(NC1CC1)c1cc(-c2cnn(-c3ccc(OC(F)(F)F)cc3Cl)c2)ccc1Cl [I-T3-90] | 3.6 | 100 | 100 | 100 | 100 | 90 |  |  |  |  |  |  |
| CN(C(=O)c1cc(-c2cnn(-c3c(Cl)cc(C(F)(F)F)cc3Cl)c2)cnc1Cl)C1CC1 [I-T3-99] |  |  | 100 | 100 | 100 | 90 | 90 | 100 | 3.5 |  |  |  |
| CN(C(=O)c1cc(-c2cnn(-c3c(Cl)cc(C(F)(C(F)(F)F)C(F)(F)F)cc3C(F)(F)F)c2)cnc1Cl)C1CC1 [I-T3-113] |  |  | 100 | 100 | 100 | 100 | 100 | 100 | 4.0 |  |  |  |
| Cc1cc(C(F)(C(F)(F)F)C(F)(F)F)cc(C)c1-n1cc(-c2cnc(C)c(C(=O)N(C)C3(C#N)CC3)c2)cn1 [I-T3-115] |  |  | 100 | 100 | 100 | 100 | 100 | 100 | 3.8 |  |  |  |
| Cc1cc(C(F)(C(F)(F)F)C(F)(F)F)cc(C(F)(F)F)c1-n1cc(-c2cnc(C)c(C(=O)N(C)C3CC3)c2)cn1 [I-T3-118] |  |  | 100 | 100 | 100 | 100 | 100 | 100 | 3.8 |  |  |  |
| Cc1cc(C(F)(C(F)(F)F)C(F)(F)F)cc(C)c1-n1cc(-c2cnc(C)c(C(=O)N(C)C3CC3)c2)cn1 [I-T3-120] |  |  | 100 | 100 | 100 | 100 | 100 | 100 | 3.6 |  |  |  |
| Cc1ncc(-c2cnn(-c3c(Cl)cc(C(F)(C(F)(F)F)C(F)(F)F)cc3C(F)(F)F)c2)cc1C(=O)N(C)C1CC1 [I-T3-130] |  |  | 100 | 100 | 100 | 100 | 100 | 100 | 3.8 |  |  |  |
| Cc1ncc(-c2cnn(-c3c(Cl)cc(C(F)(C(F)(F)F)C(F)(F)F)cc3Cl)c2)cc1C(=O)N(C)C1CC1 [I-T3-133] |  |  | 100 | 100 | 100 | 100 | 100 | 100 | 3.7 |  |  |  |
| COc1ncc(-c2cnn(-c3c(C)cc(C(F)(C(F)(F)F)C(F)(F)F)cc3C)c2)cc1C(=O)NC1(C#N)CC1 [I-T3-141] |  |  | 100 | 100 | 100 | 100 |  |  | 4.4 | 100 |  |  |
| COc1ncc(-c2cnn(-c3c(C)cc(C(F)(C(F)(F)F)C(F)(F)F)cc3C)c2)cc1C(=O)NC1CC1 [I-T3-143] |  | 80 | 100 | 100 | 100 | 100 |  | 100 | 4.6 |  |  |  |
| O=C(NC1CC1)c1cc(-c2cnn(-c3c(Cl)cc(C(F)(C(F)(F)F)C(F)(F)F)cc3OC(F)(F)F)c2)cnc1Cl [I-T3-189] |  | 100 |  | 100 | 100 | 100 |  | 100 |  |  | 4.3 |  |
| O=C(NC1CC1)c1cc(-c2cnn(-c3c(Cl)cc(C(F)(C(F)(F)F)C(F)(F)F)cc3OC(F)F)c2)cnc1Cl [I-T3-196] |  | 100 |  |  |  |  |  | 100 |  |  | 3.9 |  |
| Cc1cc(C(F)(C(F)(F)F)C(F)(F)F)cc(C)c1-c1cnn(-c2ccc(Cl)c(C(=O)NC3(C#N)CC3)c2)c1 [I-T4-2] |  | 100 | 100 | 100 | 100 | 100 |  | 100 |  |  |  | 4.6 |
| Cc1cc(C(F)(C(F)(F)F)C(F)(F)F)cc(C(F)(F)F)c1-c1cc(-c2cnc(Cl)c(C(=O)NC3(C#N)CC3)c2)on1 [I-T22-4] |  | 100 | 100 | 100 |  |  | 100 |  |  |  |  | 4.4 |
| Cc1cc(C(F)(C(F)(F)F)C(F)(F)F)cc(C(F)(F)F)c1-c1cc(-c2cnc(Cl)c(C(=O)NC3CC3)c2)on1 [I-T22-6] |  | 100 | 100 | 95 | 100 | 90 | 100 |  |  |  |  | 4.5 |
